# Test results published in USRE47302E1 (ONYX THERAPEUTICS INC., priority 2013, dated 2019).
# Read-outs that look alike come from different tables or passages of the source.
# Columns and labels:
# [1] = target: human 20S immunoproteasome (i20S) (Homo sapiens, UniProt P28062); assay: 20S proteasome assay, chymotrypsin-like activity (succinyl-Leu-Leu-Val-Tyr-AMC), i20S; assay type: biochemical
# Text: (§1) Assay buffer consisted of TE buffer [20 mmol/L Tris (pH 8.0), 0.5 mmol/L EDTA] with (20S) or without (cell lysate) 0.03% SDS. Reactions were initiated by enzyme or lysate addition and monitored for AMC product formation at 27jC with a plate-based spectofluorometer (Tecan).
# Solubility pH 7 = conditions: pH 7, aqueous buffer
# [2] = target: human constitutive 20S proteasome (c20S) (Homo sapiens, UniProt P28074); assay: 20S proteasome assay, chymotrypsin-like activity (succinyl-Leu-Leu-Val-Tyr-AMC), c20S; assay type: biochemical; conditions: LLVY substrate, 1 h continuous
# Text: as §1
# [3] = target: T1, immunoproteasome subunit LMP7 (Homo sapiens, UniProt P28062); assay: Proteasome active-site ELISA (ProCISE), LMP7, MOLT-4 lysate; assay type: biochemical; conditions: read-out: ProCISE LMP7 MOLT4 lysate Hu 1 h CONT: IC50, 1 h continuous treatment, 25° C.
# T1 construct: Lysate from the human acute lymphoblastic leukemia cell line, MOLT-4; endogenous in cells; host or cells: MOLT-4
# How it was run: (§2)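 MOLT-4 cell lysate treated 1 h at 25 °C with compound; probe-bound subunits denatured, pulled down on streptavidin beads and detected with subunit-specific antibodies plus HRP chemiluminescence.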
# [4] = target: T2, proteasome subunit β5 (beta5) (Homo sapiens, UniProt P28074); assay: Proteasome active-site ELISA (ProCISE), beta5, MOLT-4 lysate; assay type: biochemical; conditions: read-out: ProCISE beta5 MOLT4 lysate Hu 1 h CONT: IC50; MOLT4 lysate, human, 1 h continuous treatment, 25° C.
# T2 construct: Lysate from the human acute lymphoblastic leukemia cell line, MOLT-4; endogenous in cells; host or cells: MOLT-4
# How it was run: as §2
# [5] = read-out: LLVY i20S Hu 1 h CONT: IC50, LLVY substrate, 1 h continuous
Compound,"IC50 ([1]; LLVY substrate, 1 h continuous)",solubility (Solubility pH 7),IC50 [2],"IC50 [1, 5]",IC50 [3],IC50 [4]
"COc1ccc(C[C@H](NC(=O)[C@H](C)NC(=O)CN2CCOCC2)C(=O)N[C@@H](C[C@H]2CC[C@@H](O)CC2)C(=O)[C@@]2(C)CO2)cc1 [Compound C-1001, (S)-N-((S)-3-((1s,4R)-4-hydroxycyclohexyl)-1-((R)-2-methyloxiran-2-yl)-1-oxopropan-2-yl)-3-(4-methoxyphenyl)-2-((S)-2-(2-morpholinoacetamido)propanamido)propanamide]",3230 nM,2640 µg/mL,> 10000 nM,,,
"COc1ccc(C[C@H](NC(=O)[C@H](C)NC(=O)CN2CCOCC2)C(=O)N[C@@H](CC2CCCC2)C(=O)[C@@]2(C)CO2)c(F)c1 [Compound C-1008, (S)-N-((S)-3-cyclopentyl-1-((R)-2-methyloxiran-2-yl)-1-oxopropan-2-yl)-3-(2-fluoro-4-methoxyphenyl)-2-((S)-2-(2-morpholinoacetamido)propanamido)propanamide]",2500 nM,1430 µg/mL,3380 nM,,,
"C[C@H](NC(=O)CN1CCOCC1)C(=O)N[C@@H](Cc1ccco1)C(=O)N[C@@H](CC1CCCC1)C(=O)[C@@]1(C)CO1 [Compound C-1013, (S)-N-((S)-3-cyclopentyl-1-((R)-2-methyloxiran-2-yl)-1-oxopropan-2-yl)-3-(furan-2-yl)-2-((S)-2-(2-morpholinoacetamido)propanamido)propanamide]",445 nM,911 µg/mL,548 nM,,,
"C[C@H](NC(=O)CN1CCOCC1)C(=O)N[C@@H](Cc1c[nH]c2ccccc12)C(=O)N[C@@H](CC1CCCC1)C(=O)[C@@]1(C)CO1 [Compound C-1014, (S)-N-((S)-3-cyclopentyl-1-((R)-2-methyloxiran-2-yl)-1-oxopropan-2-yl)-3-(1H-indol-3-yl)-2-((S)-2-(2-morpholinoacetamido)propanamido)propanamide]",289 nM,1020 µg/mL,806 nM,,,
"COc1ccc([C@H](O)[C@H](NC(=O)[C@H](C)NC(=O)CN2CCOCC2)C(=O)N[C@@H](CC2CCCC2)C(=O)[C@@]2(C)CO2)cc1 [Compound C-1023, (2S,3S)-N-((S)-3-cyclopentyl-1-((R)-2-methyloxiran-2-yl)-1-oxopropan-2-yl)-3-hydroxy-3-(4-methoxyphenyl)-2-((S)-2-(2-morpholinoacetamido)propanamido)propanamide]",322 nM,3870 µg/mL,1880 nM,,,
"C[C@H](NC(=O)CN1CCOCC1)C(=O)N[C@@H](Cc1cccc(S(C)(=O)=O)c1)C(=O)N[C@@H](CC1CCCC1)C(=O)[C@@]1(C)CO1 [Compound C-1024, (S)-N-((S)-3-cyclopentyl-1-((R)-2-methyloxiran-2-yl)-1-oxopropan-2-yl)-3-(3-(methylsulfonyl)phenyl)-2-((S)-2-(2-morpholinoacetamido)propanamido)propanamide]",707 nM,4760 µg/mL,715 nM,,,
"COc1ccc(C[C@H](NC(=O)[C@@H](C)NC(=O)[C@@H]2CCCO2)C(=O)N[C@@H](CC2CCCC2)C(=O)[C@@]2(C)CO2)cc1 [Compound C-1031, (S)-N-((R)-1-(((S)-1-(((S)-3-cyclopentyl-1-((R)-2-methyloxiran-2-yl)-1-oxopropan-2-yl)amino)-3-(4-methoxyphenyl)-1-oxopropan-2-yl)amino)-1-oxopropan-2-yl)tetrahydrofuran-2-carboxamide]",2980 nM,462 µg/mL,> 250000 nM,,,
"COc1ccc(C[C@H](NC(=O)[C@@H](C)NC(=O)[C@H]2CCCO2)C(=O)N[C@@H](CC2CCCC2)C(=O)[C@@]2(C)CO2)cc1 [Compound C-1032, (R)-N-((R)-1-(((S)-1-(((S)-3-cyclopentyl-1-((R)-2-methyloxiran-2-yl)-1-oxopropan-2-yl)amino)-3-(4-methoxyphenyl)-1-oxopropan-2-yl)amino)-1-oxopropan-2-yl)tetrahydrofuran-2-carboxamide]",436 nM,251 µg/mL,24800 nM,,,
"COc1ccc(C[C@H](NC(=O)[C@H](C)NC(=O)CN2CCOCC2)C(=O)N[C@@H](C[C@@H]2CCC(F)(F)C2)C(=O)[C@@]2(C)CO2)cc1 [Compound C-1033, (S)-N-((S)-3-((S)-3,3-difluorocyclopentyl)-1-((R)-2-methyloxiran-2-yl)-1-oxopropan-2-yl)-3-(4-methoxyphenyl)-2-((S)-2-(2-morpholinoacetamido)propanamido)propanamide]",3100 nM,3210 µg/mL,121000 nM,,,
"COc1ccc(C[C@H](NC(=O)[C@H](C)NC(=O)CN2CCOCC2)C(=O)N[C@@H](C[C@H]2CCC(F)(F)C2)C(=O)[C@@]2(C)CO2)cc1 [Compound C-1034, (S)-N-((S)-3-((R)-3,3-difluorocyclopentyl)-1-((R)-2-methyloxiran-2-yl)-1-oxopropan-2-yl)-3-(4-methoxyphenyl)-2-((S)-2-(2-morpholinoacetamido)propanamido)propanamide]",1050 nM,2780 µg/mL,25400 nM,,,
"COc1ccc(C[C@H](NC(=O)[C@@H](C)NC(=O)[C@@H]2CCOC2)C(=O)N[C@@H](CC2CCCC2)C(=O)[C@@]2(C)CO2)cc1 [Compound C-1036, (R)-N-((R)-1-(((S)-1-(((S)-3-cyclopentyl-1-((R)-2-methyloxiran-2-yl)-1-oxopropan-2-yl)amino)-3-(4-methoxyphenyl)-1-oxopropan-2-yl)amino)-1-oxopropan-2-yl)tetrahydrofuran-3-carboxamide]",480 nM,277 µg/mL,16500 nM,,,
"COc1ccc(C[C@H](NC(=O)[C@@H](C)NC(=O)[C@H]2CCOC2)C(=O)N[C@@H](CC2CCCC2)C(=O)[C@@]2(C)CO2)cc1 [Compound C-1037, (S)-N-((R)-1-(((S)-1-(((S)-3-cyclopentyl-1-((R)-2-methyloxiran-2-yl)-1-oxopropan-2-yl)amino)-3-(4-methoxyphenyl)-1-oxopropan-2-yl)amino)-1-oxopropan-2-yl)tetrahydrofuran-3-carboxamide]",356 nM,1330 µg/mL,5860 nM,,,
"C[C@H](NC(=O)CN1CCOCC1)C(=O)N[C@@H](Cc1ccc(O)c(O)c1)C(=O)N[C@@H](CC1CCCC1)C(=O)[C@@]1(C)CO1 [Compound C-1039, (S)-N-((S)-3-cyclopentyl-1-((R)-2-methyloxiran-2-yl)-1-oxopropan-2-yl)-3-(3,4-dihydroxyphenyl)-2-((S)-2-(2-morpholinoacetamido)propanamido)propanamide]",202 nM,7010 µg/mL,694 nM,,,
C[C@H](NC(=O)CN1CCOCC1)C(=O)N[C@@H](Cc1ccncc1)C(=O)N[C@@H](Cc1ccccc1)C(=O)[C@@]1(C)CO1 [Compound C-1171],,1680 µg/mL,,63.1 nM,51 nM,252 nM
COc1ccc(C[C@H](NC(=O)[C@@H](NC(=O)CN2CCOCC2)[C@@H](C)O)C(=O)N[C@@H](Cc2ccccc2)C(=O)[C@@]2(C)CO2)cc1 [Compound C-1173],,2340 µg/mL,,33.6 nM,28.9 nM,114 nM
C[C@H](NC(=O)CN1CCOCC1)C(=O)N[C@@H](Cc1cccnc1)C(=O)N[C@@H](Cc1ccccc1)C(=O)[C@@]1(C)CO1 [Compound C-1175],,2480 µg/mL,,129 nM,107 nM,441 nM
COc1ccc(C[C@H](NC(=O)[C@H](C)NC(=O)NN2CCOCC2)C(=O)N[C@@H](Cc2ccccc2)C(=O)[C@@]2(C)CO2)cc1 [Compound C-1178],,1190 µg/mL,,241 nM,510 nM,3840 nM
COc1ccc(C[C@H](NC(=O)[C@H](C)NC(=O)CN2CCOCC2)C(=O)N[C@@H](Cc2cccc(F)c2)C(=O)[C@@]2(C)CO2)cc1 [Compound C-1180],,1380 µg/mL,,25.9 nM,21 nM,312 nM
COc1ccc(C[C@H](NC(=O)[C@H](C)NC(=O)CN2CCOCC2)C(=O)N[C@@H](Cc2ccc(C)cc2)C(=O)[C@@]2(C)CO2)cc1 [Compound C-1181],,938 µg/mL,,13.5 nM,13.5 nM,120 nM
COc1ccc(C[C@H](NC(=O)[C@@H](NC(=O)CN2CCOCC2)C2COC2)C(=O)N[C@@H](Cc2ccccc2)C(=O)[C@@]2(C)CO2)cc1 [Compound C-1183],,4540 µg/mL,,21.5 nM,17.1 nM,101 nM
COc1ccc(C[C@H](NC(=O)[C@@H](NC(=O)CN2CCOCC2)C2(O)CC2)C(=O)N[C@@H](Cc2ccccc2)C(=O)[C@@]2(C)CO2)cc1 [Compound C-1184],,2730 µg/mL,,10.5 nM,19.5 nM,63.9 nM
C=CC(=O)NC[C@H](NC(=O)[C@H](C)NC(=O)CN1CCOCC1)C(=O)N[C@@H](Cc1ccccc1)C(=O)[C@@]1(C)CO1 [Compound C-1225],,3450 µg/mL,,18.6 nM,49.5 nM,205 nM
C[C@H](NC(=O)CN1CCOCC1)C(=O)N[C@@H](CC1=CCCCC1)C(=O)N[C@@H](Cc1ccccc1)C(=O)[C@@]1(C)CO1 [Compound C-1227],,1980 µg/mL,,649 nM,,
